# Reference: paper PMC3129627 (Organic letters, 2011)
# Columns and labels:
# [1] = target: acetyl cholinesterase (AChE) from the housefly (CSMA strain); details: natural product; cited from earlier work
# [2] = target: acetyl cholinesterase (AChE) from the brown plant hopper; details: natural product; cited from earlier work
# [3] = target: human AChE (Homo sapiens, UniProt P22303); assay: Inhibition of human AChE, modified Ellman assay; type: biochemical; details: racemic (±) synthetic compounds
# human AChE, sequence (P22303 32-614): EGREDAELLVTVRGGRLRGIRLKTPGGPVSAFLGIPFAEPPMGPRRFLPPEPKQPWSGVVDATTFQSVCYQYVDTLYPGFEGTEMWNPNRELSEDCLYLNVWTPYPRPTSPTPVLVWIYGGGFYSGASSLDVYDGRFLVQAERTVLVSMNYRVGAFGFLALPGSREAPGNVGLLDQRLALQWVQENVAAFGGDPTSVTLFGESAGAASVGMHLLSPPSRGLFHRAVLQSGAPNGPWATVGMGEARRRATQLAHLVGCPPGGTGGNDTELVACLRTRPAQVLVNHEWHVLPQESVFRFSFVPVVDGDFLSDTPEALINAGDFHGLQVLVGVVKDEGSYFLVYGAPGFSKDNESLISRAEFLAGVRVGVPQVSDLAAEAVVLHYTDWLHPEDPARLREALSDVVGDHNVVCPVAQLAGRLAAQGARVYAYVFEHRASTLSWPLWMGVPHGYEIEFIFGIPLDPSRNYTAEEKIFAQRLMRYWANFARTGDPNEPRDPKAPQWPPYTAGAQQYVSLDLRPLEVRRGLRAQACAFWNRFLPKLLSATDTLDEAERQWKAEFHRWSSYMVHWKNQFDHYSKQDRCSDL
compound,measurement,setting,value
"CO[P@]1(=O)OC[C@H]2COC(=O)C2=C(C)O1 [compound 1, Cyclophostin]",IC50,[1],0.76 nM
same,IC50,[2],0.76 nM
same,IC50,[3],~40 nM
